These compounds were tested against T1, MIZ1^BTB (Homo sapiens, UniProt Q13105) (assay: 1H-15N HSQC NMR titration).
T1 construct: gene ZBTB17; BTB domain, residues 1-115; N-terminal Trx-His6 tag cleaved with PreScission; E. coli BL21(DE3); 13C,15N-labelled; homodimer in solution
T1 sequence (Q13105 1-115): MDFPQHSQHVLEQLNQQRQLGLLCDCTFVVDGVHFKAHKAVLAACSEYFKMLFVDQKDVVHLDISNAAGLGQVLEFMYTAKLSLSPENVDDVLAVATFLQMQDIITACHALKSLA
Type: binding

Row | Kd | SMILES
1 | 68 ± 9 µM | Nc1ccc(-n2cnc(Cl)c2Cl)cc1 [2GG4]
2 | 425 ± 59 µM | OC1(c2ccc(Cl)c(C(F)(F)F)c2)CCNCC1 [4CC2]
3 | 870 ± 140 µM | Cc1nc2ccc(Cl)cc2nc1C [5DD7]

Reference: publication PMC9668832, “Increased slow dynamics defines ligandability of BTB domains” (Nature Communications, 2022)
